{
  "source": "patent US20250066316A1",
  "about": "“CRYSTALLINE FORMS OF A COMPOUND FOR TREATING OR PREVENTING GOUT OR HYPERURICEMIA” (Arthrosi Therapeutics, Inc., priority 2021, published 2025)",
  "key": {"CYP2C9": {"biological_target": "CYP2C9 (Homo sapiens, UniProt P11712)", "sequence (P11712 whole entry)": "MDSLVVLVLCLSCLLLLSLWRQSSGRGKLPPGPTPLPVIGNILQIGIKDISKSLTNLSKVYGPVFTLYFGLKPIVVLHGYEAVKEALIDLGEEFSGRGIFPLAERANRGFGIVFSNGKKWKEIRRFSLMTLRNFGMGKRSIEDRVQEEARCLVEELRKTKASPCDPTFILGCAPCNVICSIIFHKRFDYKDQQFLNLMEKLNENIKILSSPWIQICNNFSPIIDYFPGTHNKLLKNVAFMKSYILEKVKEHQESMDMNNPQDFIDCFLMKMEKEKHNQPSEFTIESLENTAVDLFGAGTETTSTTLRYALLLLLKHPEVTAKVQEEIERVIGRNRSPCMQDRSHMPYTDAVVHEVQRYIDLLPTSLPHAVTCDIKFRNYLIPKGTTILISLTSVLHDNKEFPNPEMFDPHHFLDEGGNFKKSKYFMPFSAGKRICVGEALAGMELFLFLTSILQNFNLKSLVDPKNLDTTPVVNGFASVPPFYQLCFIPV", "experiment": "CYP2C9 metabolic pathway / metabolite formation", "format": "in vitro ADME"}, "[1]": {"biological_target": "T1, human URAT1 uptake transporter (Homo sapiens, UniProt Q96S37)", "T1 construct": "expressed in transfected cells", "T1 sequence (Q96S37 1-553)": "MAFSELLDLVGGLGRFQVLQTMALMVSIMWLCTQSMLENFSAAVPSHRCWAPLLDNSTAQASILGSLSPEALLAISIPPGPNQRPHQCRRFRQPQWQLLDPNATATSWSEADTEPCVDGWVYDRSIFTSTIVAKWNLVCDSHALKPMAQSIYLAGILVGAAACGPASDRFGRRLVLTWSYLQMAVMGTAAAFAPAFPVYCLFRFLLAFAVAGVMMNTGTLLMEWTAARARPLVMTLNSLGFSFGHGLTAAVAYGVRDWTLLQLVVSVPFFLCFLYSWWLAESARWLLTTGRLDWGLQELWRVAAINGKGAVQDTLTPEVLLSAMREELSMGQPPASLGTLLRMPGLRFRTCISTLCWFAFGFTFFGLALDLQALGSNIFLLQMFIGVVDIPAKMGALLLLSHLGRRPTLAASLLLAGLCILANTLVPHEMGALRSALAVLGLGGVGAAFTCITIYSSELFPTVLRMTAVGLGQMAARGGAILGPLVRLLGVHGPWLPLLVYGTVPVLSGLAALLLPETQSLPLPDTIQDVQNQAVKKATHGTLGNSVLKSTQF", "experiment": "In vitro interaction with the human URAT1 uptake transporter (uric acid uptake in MDCKII cells)", "format": "cell-based", "settings": "for inhibition at 10 µM: MDCK-II, read-out: inhibition of URAT1 mediated uric acid accumulation", "method": "Uptake experiments were performed using MDCKII cells stably expressing the human URAT1 uptake transporter. Cells were cultured at 37±1° C. in an atmosphere of 95:5 air:CO2 and were plated onto standard 96-well tissue culture plates at the cell number described in Table 1.\nRadiolabelled probe substrate transport was determined by measuring an aliquot (35 μL) from each well for liquid scintillation counting."}, "[2]": {"experiment": "Solubility of test articles in HBSS assay buffer", "settings": "all tested concentrations; highest tested concentration 10 μM", "procedure": "Before the experiment, the medium was removed and the cells were washed twice with 100 μL of HBSS without Cl^−. Uptake experiments were carried out at 37±1° C. in 50 μL of HBSS without Cl^−, pH 7.4 containing the probe substrate (20 μM uric acid) and the test article (TA) or solvent."}, "[3]": {"experiment": "Stability in human microsomes", "format": "in vitro ADME", "settings": "comparison with benzbromarone"}, "[4]": {"settings": "cited from earlier work"}},
  "data": [
    {"molecule": "[2H]c1c([2H])c([2H])c2c(C(=O)c3cc(Br)c(O)c(Br)c3)c(C(C)O)oc2c1[2H]", "note": "(stereo not shown) [Compound 1, (3,5-dibromo-4-hydroxyphenyl) (2-(1-hydroxyethyl)benzofuran-3-yl-4,5,6,7-d4) methanone]", "values": [
      {"measurement": "CYP2C9 metabolic pathway of the compound", "setting": "CYP2C9", "value": "significantly reduced"},
      {"measurement": "formation of 6-OH benzbromarone and 5,6-di-OH benzbromarone metabolites", "setting": "CYP2C9", "value": "not formed"},
      {"measurement": "inhibition at 10 µM", "setting": "[1]", "value": 100, "unit": "%"},
      {"measurement": "in vitro URAT1 potency compared to benzbromarone", "setting": "[1]; comparison with benzbromarone", "value": "better"},
      {"measurement": "solubility in HBSS buffer", "setting": "[2]", "value": "soluble"},
      {"measurement": "stability in human microsomes", "setting": "[3]", "value": "more stable than benzbromarone"}
    ]},
    {"molecule": "CCc1oc2ccccc2c1C(=O)c1cc(Br)c(O)c(Br)c1", "note": "[Benzbromarone, reference compound]", "values": [
      {"measurement": "inhibition at 10 µM", "setting": "[1]", "value": 98, "unit": "%"},
      {"measurement": "serum uric acid (sUA) level reached", "setting": "[4]; chronic therapy, target levels", "value": "< 6", "unit": "mg/dL"},
      {"measurement": "hepatotoxicity", "setting": "[4]; in certain patients", "value": "associated with hepatotoxicity"},
      {"measurement": "solubility in HBSS buffer", "setting": "[2]", "value": "soluble"}
    ]}
  ]
}
